From ChEMBL document CHEMBL1145948 (J Med Chem, 2003)
The source made the active and inactive calls. No cut-off for these calls is given here.

What was measured:
Histamine H1 receptor [1] = biological target: T1, Histamine H1 receptor (Homo sapiens, UniProt P35367)
Histamine H1 receptor [2] = biological target: T1, Histamine H1 receptor; remark: listed apart in the source
Histamine H1 receptor [3] = biological target: T1, Histamine H1 receptor; assay: Intrinsic activity; Tested up to 100 uM: no effects up to 10 uM
Histamine H1 receptor [4] = biological target: T1, Histamine H1 receptor; assay: Intrinsic activity; Tested up to 10 uM: no effects up to 1 uM
Histamine H1 receptor [5] = biological target: T1, Histamine H1 receptor; assay: Intrinsic activity; Tested up to 10 uM: no effects up to 1 uM
Histamine H1 receptor [6] = biological target: T1, Histamine H1 receptor; assay: Intrinsic activity was determined; Tested up to 100 uM: no effects up to 10 uM

T1 sequence (P35367 whole entry): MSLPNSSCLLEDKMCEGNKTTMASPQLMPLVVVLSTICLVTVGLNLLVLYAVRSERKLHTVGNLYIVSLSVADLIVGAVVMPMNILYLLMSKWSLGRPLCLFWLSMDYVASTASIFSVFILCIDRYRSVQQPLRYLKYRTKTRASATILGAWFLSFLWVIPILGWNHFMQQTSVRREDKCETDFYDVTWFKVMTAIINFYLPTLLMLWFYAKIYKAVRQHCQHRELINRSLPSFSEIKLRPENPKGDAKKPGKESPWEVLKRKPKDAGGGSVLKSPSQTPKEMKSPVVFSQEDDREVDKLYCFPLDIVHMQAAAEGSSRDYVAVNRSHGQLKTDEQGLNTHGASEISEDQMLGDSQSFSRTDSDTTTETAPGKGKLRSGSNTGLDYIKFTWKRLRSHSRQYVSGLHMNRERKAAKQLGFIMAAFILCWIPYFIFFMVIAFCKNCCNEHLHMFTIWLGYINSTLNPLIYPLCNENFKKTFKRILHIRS

SMILES | IC50 (Histamine H1 receptor [1]) | Alpha (Histamine H1 receptor [2]) | other results
CN(C)CCN(Cc1ccccc1)c1ccccn1 [TRIPELENNAMINE] | 0.0398 µM | -0.84 | –
NCCc1c[nH]cn1 | – | 1 | –
NCCc1c[nH]c(CCC(c2ccccc2)c2ccccc2)n1 | – | 0.69 | –
NCCCCCCCCCCCc1cnc[nH]1 | 0.251 µM | – | –
c1ccc(C(CCc2nc(CCN3CCCC3)c[nH]2)c2ccccc2)cc1 | – | – | Alpha (Histamine H1 receptor [3]): inactive
NCCCCCCCCCCCCCc1cnc[nH]1 | 1.26 µM | – | –
NCCCCCCCCCCCCCc1c[nH]cn1 | – | -0.84 | –
NCCc1c[nH]c(CCC(c2ccccc2)c2ccc(Br)cc2)n1 (stereo not drawn) | – | – | Alpha (Histamine H1 receptor [4]): inactive
NCCCCCCCCCCc1ccccn1 | – | – | Alpha (Histamine H1 receptor [5]): inactive
NCCc1c[nH]c(CC(c2ccccc2)c2ccccc2)n1 | – | – | Alpha (Histamine H1 receptor [3]): inactive
NCCc1c[nH]c(CCCCC(c2ccccc2)c2ccccc2)n1 | – | -0.09 | –
NCCCCCCCCCCCCc1ccccn1 | – | – | Alpha (Histamine H1 receptor [5]): inactive
c1nc(CCCCCCCCN2CCCC2)c[nH]1 | – | -0.99 | –
NCCCCCCCCCCc1ccncc1 | 2.51 µM | -1 | –
c1nc(CCCCCCCCCCCCN2CCCC2)c[nH]1 | 3.98 µM | -0.46 | –
NCCc1cnc(CCC(c2ccccc2)c2ccccc2)[nH]1 | 0.794 µM | – | –
Cc1ccc(C(CCc2nc(CCN)c[nH]2)c2ccccc2)cc1 (stereo not drawn) | – | – | Alpha (Histamine H1 receptor [4]): inactive
NCCCCCCCCCc1ccccn1 | 7.94 µM | -0.92 | –
NCCCCCCCCCCCCc1c[nH]cn1 | 1 µM | -0.62 | –
NCCCCCCCCCCCCc1cccnc1 | 1.26 µM | -0.78 | –

SMILES | IC50 (Histamine H1 receptor [1]) | Alpha (Histamine H1 receptor [2]) | other results
NCCc1c[nH]c(-c2cccc(Cl)c2)n1 | – | 1.28 | EC50 (Histamine H1 receptor [1]): 2 µM
NCCCCCCCCc1c[nH]cn1 | – | -0.54 | –
NCCc1cnc(-c2cccc(C(F)(F)F)c2)[nH]1 | – | – | EC50 (Histamine H1 receptor [1]): 1 µM
NCCc1ccccn1 | 1.26 µM | 1.11 | –
NCCc1cscn1 | – | – | Alpha (Histamine H1 receptor [6]): inactive
NCCc1c[nH]c(CCCC(c2ccccc2)c2ccccc2)n1 | – | 0.02 | –
NCCc1c[nH]c(-c2ccc(Cl)c(Cl)c2)n1 | – | 0.5 | EC50 (Histamine H1 receptor [1]): 50.1 µM
NCCCCCCCCCCCCc1ccncc1 | 0.398 µM | -0.67 | –
NCCCCCCCCCc1c[nH]cn1 | 2 µM | -0.72 | –
NCCCCCCCCCCc1c[nH]cn1 | 0.501 µM | -0.54 | –
c1ncc(CCCCCCCCN2CCCC2)[nH]1 | 0.631 µM | – | –
NCCCCCCCCCCCCCCc1cnc[nH]1 | 2 µM | – | –
NCCCCCCCCc1cnc[nH]1 | 3.16 µM | – | –
NCCCCCCCCCCCc1c[nH]cn1 | – | -0.61 | –
NCCc1c[nH]c(CCC(c2ccccc2)C2CCCCC2)n1 (stereo not drawn) | – | – | Alpha (Histamine H1 receptor [4]): inactive
NCCCCCCCCCCCCCCc1c[nH]cn1 | – | -0.9 | –
NCCCCCCCCCCc1cccnc1 | 2.51 µM | -0.76 | –
c1nc(CCCCCCCCCCN2CCCC2)c[nH]1 | 0.398 µM | -0.61 | –
NCCc1c[nH]c(-c2cccc(C(F)(F)F)c2)n1 | – | 0.91 | –
